The target of assay [1] is T1, Human immunodeficiency virus type 1 protease (Human immunodeficiency virus 1, UniProt Q72874). Put plainly: In vitro inhibition of HIV-1 protease.
Assay [2] has as its system Human immunodeficiency virus 1. Put plainly: Concentration required to inhibit HIV-1 virus replication by 50% as determined by XTT. Format: functional. The note with it: read-out: ED50 (the source's name). In general terms: Tetrazolium assays rely on reduction of a dye to a coloured formazan, in cell work by metabolically active cells.
Assay [3] addresses T1, Human immunodeficiency virus type 1 protease. Put plainly: Inhibition constant against HIV protease was determined.

Molecules are shown by their SMILES.

This is an account of results in ChEMBL document CHEMBL1150457, “-hydroxyamide derived aminodiols as potent inhibitors of hiv protease” (Bioorg Med Chem Lett, 1995).

As a reminder, the IC50 is the concentration that inhibits the measured activity by half. High values mean lower potency, low ones higher potency. The Ki is the dissociation constant of the complex between target and ligand, obtained from inhibition or displacement. A low value points to higher affinity.

As to `CC(C)(C)OC(=O)N[C@@H](Cc1ccccc1)[C@H](O)CNC[C@@H](O)[C@H](Cc1ccccc1)NC(=O)[C@@](C)(O)C(C)(C)C`, half-maximal inhibition in assay [1] (IC50) was put at 40 nM. For the same molecule, the EC50 in assay [2] (Human immunodeficiency virus 1) stood at 60 nM. The Ki in assay [3] stood at 24 nM.

For `CC(C)(C)OC(=O)N[C@@H](Cc1ccccc1)[C@H](O)CNC[C@@H](O)[C@H](Cc1ccccc1)NC(=O)[C@@H](O)C(C)(C)C`, the IC50 in assay [1] worked out at 1200 nM. In other words, the single-digit micromolar range.

In the case of `CC(C)(C)CC(=O)N[C@@H](Cc1ccccc1)[C@H](O)CNC[C@@H](O)[C@H](Cc1ccccc1)NC(=O)OC(C)(C)C`, in assay [2] (Human immunodeficiency virus 1), the EC50 was 1200 nM.

Take `CC(C)(C)OC(=O)N[C@@H](Cc1ccccc1)[C@H](O)CNC[C@@H](O)[C@H](Cc1ccccc1)NC(=O)[C@@H](O)c1ccccc1`: the IC50 in assay [1] is above 10000 nM.

`CC(C)(C)OC(=O)N[C@@H](Cc1ccccc1)[C@H](O)CNC[C@@H](O)[C@H](Cc1ccccc1)NC(=O)[C@@](C)(O)c1ccccc1` returned an IC50 in assay [1] of 260 nM. Also, the EC50 in assay [2] (Human immunodeficiency virus 1) was 1350 nM.

In turn, `CC(C)(C)OC(=O)N[C@@H](Cc1ccccc1)[C@H](O)CNC[C@@H](O)[C@H](Cc1ccccc1)NC(=O)C(C)(C)O` returned a 50% inhibitory concentration (IC50) in assay [1] of 450 nM. Also, the EC50 in assay [2] (Human immunodeficiency virus 1) is 970 nM.

With `CC(C)(C)OC(=O)N[C@@H](Cc1ccccc1)[C@H](O)CNC[C@@H](O)[C@H](Cc1ccccc1)NC(=O)OC(C)(C)C`, the EC50 in assay [2] (Human immunodeficiency virus 1) worked out at 80 nM. This molecule also yielded a Ki in assay [3] of 100 nM.

Regarding `CC(C)(C)OC(=O)N[C@@H](Cc1ccccc1)[C@H](O)CNC[C@@H](O)[C@H](Cc1ccccc1)NC(=O)[C@H](O)C(C)(C)C`, the midpoint of inhibition in assay [1], the IC50, lay at 50 nM. In addition, in assay [2] (Human immunodeficiency virus 1), the EC50 was 55 nM.

Molecule `CC(C)(C)OC(=O)N[C@@H](Cc1ccccc1)[C@H](O)CNC[C@@H](O)[C@H](Cc1ccccc1)NC(=O)[C@](C)(O)C(C)(C)C` showed an IC50 in assay [1] of 900 nM. In addition, the EC50 in assay [2] (Human immunodeficiency virus 1) stood at 1380 nM.

In the case of `CC(C)(C)OC(=O)N[C@@H](Cc1ccccc1)[C@H](O)CNC[C@@H](O)[C@H](Cc1ccccc1)NC(=O)[C@](C)(O)c1ccccc1`, half-maximal inhibition in assay [1] (IC50) required 6500 nM.

For the molecule `CC(C)(C)OC(=O)N[C@@H](Cc1ccccc1)[C@H](O)CNC[C@@H](O)[C@H](Cc1ccccc1)NC(=O)[C@H](O)c1ccccc1`, the IC50 in assay [1] stood at 320 nM. The EC50 in assay [2] (Human immunodeficiency virus 1) was 650 nM.

With `CC(C)(C)OC(=O)N[C@@H](Cc1ccccc1)[C@H](O)CNC[C@@H](O)[C@H](Cc1ccccc1)NC(=O)C(O)C(F)(F)F` (single isomer, unassigned; isomer A), 40 nM corresponded to half-maximal inhibition in assay [1] (IC50). Moreover, in assay [2] (Human immunodeficiency virus 1), the EC50 came out at 60 nM.

With `CC(C)(C)OC(=O)N[C@@H](Cc1ccccc1)[C@H](O)CNC[C@@H](O)[C@H](Cc1ccccc1)NC(=O)C(O)(CO)C(C)(C)C` (single isomer, unassigned; isomer B), the IC50 in assay [1] came to 10000 nM.

In assay [1], `CC(C)(C)OC(=O)N[C@@H](Cc1ccccc1)[C@H](O)CNC[C@@H](O)[C@H](Cc1ccccc1)NC(=O)C1(O)CCCC1(C)C` (single isomer, unassigned; isomer B) came in with an IC50 of 250 nM. In addition, the EC50 in assay [2] was determined as 375 nM.

`CC(C)(C)OC(=O)N[C@@H](Cc1ccccc1)[C@H](O)CNC[C@@H](O)[C@H](Cc1ccccc1)NC(=O)C(O)C(F)(F)F` (stereo in doubt) registered an IC50 in assay [1] of 2200 nM.

Turning to `CC(C)(C)OC(=O)N[C@@H](Cc1ccccc1)[C@H](O)CNC[C@@H](O)[C@H](Cc1ccccc1)NC(=O)C(O)(CO)C(C)(C)C` (stereo in doubt), the IC50 in assay [1] was 60 nM. The EC50 in assay [2] (Human immunodeficiency virus 1) was determined as 25 nM.

As to `CC(C)(C)OC(=O)N[C@@H](Cc1ccccc1)[C@H](O)CNC[C@@H](O)[C@H](Cc1ccccc1)NC(=O)C1(O)CCCC1(C)C` (stereo in doubt), the IC50 in assay [1] amounted to 15 nM. Further, the EC50 in assay [2] was 30 nM.

Turning to `CC(C)(C)OC(=O)N[C@@H](Cc1ccccc1)[C@H](O)CNC[C@@H](O)[C@H](Cc1ccccc1)NC(=O)C(C)(O)C(C)(C)CO` (stereo in doubt; form 1), the IC50 in assay [1] is 120 nM. Further, in assay [2], the EC50 was found to be 110 nM.

The molecule `CC(C)(C)OC(=O)N[C@@H](Cc1ccccc1)[C@H](O)CNC[C@@H](O)[C@H](Cc1ccccc1)NC(=O)C1(O)COCC1(C)C` (stereo in doubt; form 1) displayed a 50% inhibitory concentration (IC50) in assay [1] of 3500 nM.

`CC(C)(C)OC(=O)N[C@@H](Cc1ccccc1)[C@H](O)CNC[C@@H](O)[C@H](Cc1ccccc1)NC(=O)C(C)(O)C(C)(C)CO` (stereo in doubt; form 2): in assay [1], the IC50 stood at 130 nM. Further, the EC50 in assay [2] (Human immunodeficiency virus 1) was 160 nM.

`CC(C)(C)OC(=O)N[C@@H](Cc1ccccc1)[C@H](O)CNC[C@@H](O)[C@H](Cc1ccccc1)NC(=O)C1(O)COCC1(C)C` (stereo in doubt; form 2) registered a half-maximal inhibitory concentration (IC50) in assay [1] of 220 nM. Besides, in assay [2] (Human immunodeficiency virus 1), the EC50 turned out to be 230 nM.
